The target in one experiment is ALK3 (Homo sapiens, UniProt P36894). The experiment in a line: TR-FRET enzymatic ALK kinase assay, ALK3. For orientation: Time-resolved FRET reads energy transfer from a long-lived donor to a nearby acceptor.
Another experiment concerns the target T1, ALK4 (Homo sapiens, UniProt P36896).
T1 sequence (P36896 24-505): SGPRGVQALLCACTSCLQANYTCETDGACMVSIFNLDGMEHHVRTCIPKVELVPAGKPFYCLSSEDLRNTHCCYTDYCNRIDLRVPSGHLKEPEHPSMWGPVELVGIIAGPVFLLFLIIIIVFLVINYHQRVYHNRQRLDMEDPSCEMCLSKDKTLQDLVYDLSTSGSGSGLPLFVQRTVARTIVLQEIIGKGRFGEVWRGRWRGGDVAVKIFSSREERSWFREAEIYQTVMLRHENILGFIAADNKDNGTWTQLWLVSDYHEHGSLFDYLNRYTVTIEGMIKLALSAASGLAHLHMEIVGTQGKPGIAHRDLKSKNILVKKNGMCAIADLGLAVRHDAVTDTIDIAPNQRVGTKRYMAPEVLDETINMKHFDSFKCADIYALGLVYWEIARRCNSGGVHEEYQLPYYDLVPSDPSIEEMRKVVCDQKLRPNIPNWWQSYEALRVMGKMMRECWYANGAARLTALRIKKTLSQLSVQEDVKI
The experiment in a line: TR-FRET enzymatic ALK kinase assay, ALK4.

A further experiment deals with ALK6 (Homo sapiens, UniProt O00238). Description: TR-FRET enzymatic ALK kinase assay, ALK6.
Sequence of ALK6 (O00238 14-502): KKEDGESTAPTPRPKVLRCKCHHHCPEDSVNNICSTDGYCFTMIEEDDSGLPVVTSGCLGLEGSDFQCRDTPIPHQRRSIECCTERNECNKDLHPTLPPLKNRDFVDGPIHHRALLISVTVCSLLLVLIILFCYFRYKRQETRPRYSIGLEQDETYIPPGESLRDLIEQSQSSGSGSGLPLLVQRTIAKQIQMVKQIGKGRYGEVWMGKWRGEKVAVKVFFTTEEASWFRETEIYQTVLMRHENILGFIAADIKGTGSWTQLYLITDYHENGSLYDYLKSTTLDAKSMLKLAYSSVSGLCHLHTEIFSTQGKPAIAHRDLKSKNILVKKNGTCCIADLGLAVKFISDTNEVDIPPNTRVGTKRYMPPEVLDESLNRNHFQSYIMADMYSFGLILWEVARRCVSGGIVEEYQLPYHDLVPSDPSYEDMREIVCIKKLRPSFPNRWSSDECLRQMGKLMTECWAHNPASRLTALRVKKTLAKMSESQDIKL
Another experiment concerns the target T2, ALK2 (Homo sapiens, UniProt Q04771).
T2 sequence (Q04771 21-509): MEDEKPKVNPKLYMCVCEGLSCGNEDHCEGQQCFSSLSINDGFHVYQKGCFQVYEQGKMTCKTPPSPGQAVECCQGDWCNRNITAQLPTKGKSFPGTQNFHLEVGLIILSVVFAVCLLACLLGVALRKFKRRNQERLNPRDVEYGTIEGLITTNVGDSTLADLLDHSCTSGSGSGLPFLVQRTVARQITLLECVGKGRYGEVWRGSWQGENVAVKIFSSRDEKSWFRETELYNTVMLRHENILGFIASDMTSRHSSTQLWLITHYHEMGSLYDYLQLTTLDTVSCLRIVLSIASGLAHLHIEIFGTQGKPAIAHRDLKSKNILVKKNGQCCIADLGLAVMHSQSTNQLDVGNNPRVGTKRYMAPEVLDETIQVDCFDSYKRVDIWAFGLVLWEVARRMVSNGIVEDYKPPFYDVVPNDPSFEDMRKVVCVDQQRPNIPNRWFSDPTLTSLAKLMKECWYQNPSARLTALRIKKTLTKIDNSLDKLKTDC
Description: TR-FRET enzymatic ALK kinase assay, ALK2.

The target in the next experiment is T3, ALK5 (Homo sapiens, UniProt P36897).
T3 sequence (P36897 34-503): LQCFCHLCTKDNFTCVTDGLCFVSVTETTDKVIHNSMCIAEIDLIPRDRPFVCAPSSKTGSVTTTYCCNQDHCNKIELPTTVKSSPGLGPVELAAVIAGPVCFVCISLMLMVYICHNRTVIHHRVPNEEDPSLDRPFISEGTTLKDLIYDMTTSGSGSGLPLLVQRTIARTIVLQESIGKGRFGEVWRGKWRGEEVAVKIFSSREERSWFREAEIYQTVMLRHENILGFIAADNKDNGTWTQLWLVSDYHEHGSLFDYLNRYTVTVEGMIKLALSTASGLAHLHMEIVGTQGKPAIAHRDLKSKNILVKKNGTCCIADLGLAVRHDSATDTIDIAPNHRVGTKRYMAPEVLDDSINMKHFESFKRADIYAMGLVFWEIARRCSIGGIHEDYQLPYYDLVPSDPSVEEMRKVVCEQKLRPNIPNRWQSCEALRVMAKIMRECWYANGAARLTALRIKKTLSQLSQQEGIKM
The experiment in a line: TR-FRET enzymatic ALK kinase assay, ALK5.

The target in the next experiment is ALK1 (Homo sapiens, UniProt P37023). Description: TR-FRET enzymatic ALK kinase assay, ALK1.
Sequence of ALK1 (P37023 22-503): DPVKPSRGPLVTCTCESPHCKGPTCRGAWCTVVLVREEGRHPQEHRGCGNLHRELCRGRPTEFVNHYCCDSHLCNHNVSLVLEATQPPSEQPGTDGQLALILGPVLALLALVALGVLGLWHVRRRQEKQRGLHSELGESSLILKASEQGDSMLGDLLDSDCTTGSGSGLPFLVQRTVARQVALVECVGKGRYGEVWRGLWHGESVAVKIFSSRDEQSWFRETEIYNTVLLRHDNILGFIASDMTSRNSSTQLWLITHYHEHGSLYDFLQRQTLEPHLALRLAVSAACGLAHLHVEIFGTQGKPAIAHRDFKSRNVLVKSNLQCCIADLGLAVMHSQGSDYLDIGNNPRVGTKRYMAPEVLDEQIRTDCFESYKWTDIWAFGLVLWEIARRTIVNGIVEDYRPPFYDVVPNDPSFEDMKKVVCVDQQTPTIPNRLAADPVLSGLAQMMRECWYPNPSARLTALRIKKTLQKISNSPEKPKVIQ

Bounds are passed on as bounds.

Sequence of ALK3 (P36894 24-532): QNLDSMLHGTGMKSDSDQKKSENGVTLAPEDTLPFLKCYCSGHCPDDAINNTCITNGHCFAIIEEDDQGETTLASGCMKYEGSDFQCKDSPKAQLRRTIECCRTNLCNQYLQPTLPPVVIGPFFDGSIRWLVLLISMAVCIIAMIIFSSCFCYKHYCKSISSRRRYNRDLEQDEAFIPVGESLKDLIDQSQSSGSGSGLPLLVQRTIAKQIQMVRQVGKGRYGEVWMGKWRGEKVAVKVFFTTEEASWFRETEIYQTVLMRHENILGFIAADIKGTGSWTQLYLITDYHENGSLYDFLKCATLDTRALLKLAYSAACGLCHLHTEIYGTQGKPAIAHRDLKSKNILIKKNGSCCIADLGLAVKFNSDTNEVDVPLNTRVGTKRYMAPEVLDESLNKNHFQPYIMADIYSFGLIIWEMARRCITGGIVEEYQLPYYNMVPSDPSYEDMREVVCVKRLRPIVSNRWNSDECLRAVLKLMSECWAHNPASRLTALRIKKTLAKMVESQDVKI
Description for ALK1: (§1) Briefly, the ALKs enzymatic assay was initiated by dispense 2.5 μl enzyme in 1× kinase reaction buffer. The assay plate was then added with compounds followed by incubation at room temperature for 10 minutes. Then 2.5 μl/well substrate was added.
Description for ALK2: as §1
Description for ALK3: as §1
Description for ALK4: as §1
Description for ALK5: Six ALK kinase enzyme assays were developed for determination of compound activities on ALK1, ALK2, ALK3, ALK4, ALK5 and ALK6.
as §1
Description for ALK6: as §1

Regarding `NC(c1cccc(-c2cnn3cc(-c4ccc(OCCN5CCCCC5)cc4)cnc23)c1)C(F)(F)F` (centres unmarked) [Compound 153, 2,2,2-trifluoro-1-(3-(6-(4-(2-(piperidin-1-yl)ethoxy)phenyl)pyrazolo[1,5-a]pyrimidin-3-yl)phenyl)ethanamine], the IC50 is 4300 nM at ALK3; over 10000 nM at ALK4; over 10000 nM against ALK6; 110 nM against ALK2; over 10000 nM against ALK5; 1400 nM at ALK1.
Turning to `NC(c1cccc(-c2cnn3cc(-c4ccc(OC5(CN6CCOCC6)CC5)cc4)cnc23)c1)C(F)(F)F` (centres unmarked) [Compound 181, 2,2,2-trifluoro-1-(3-(6-(4-(1-(morpholinomethyl)cyclopropoxy)phenyl)pyrazolo[1,5-a]pyrimidin-3-yl)phenyl)ethanamine], the IC50 is 3300 nM against ALK3; over 10000 nM at ALK4; over 10000 nM on ALK6; 70 nM against ALK2; over 10000 nM on ALK5; 2000 nM against ALK1.
Regarding `CS(=O)(=O)c1cccc(-c2cnn3cc(-c4ccc(OC5(CN6CCC(O)CC6)CC5)cc4)cnc23)c1` [Compound 194, 1-((1-(4-(3-(3-(methylsulfonyl)phenyl)pyrazolo[1,5-a]pyrimidin-6-yl)phenoxy)cyclopropyl)methyl)piperidin-4-ol], the IC50 was 870 nM on ALK3; over 10000 nM at ALK4; over 10000 nM against ALK6; 20 nM against ALK2; over 10000 nM on ALK5; 230 nM against ALK1.
Regarding `CS(=O)(=O)c1cccc(-c2cnn3cc(-c4ccc(C5CCCNC5)cc4)cnc23)c1` (centres unmarked) [Compound 139, 3-(3-(methylsulfonyl)phenyl)-6-(4-(piperidin-3-yl)phenyl)pyrazolo[1,5-a]pyrimidine], the IC50 was 4800 nM against ALK3; over 10000 nM against ALK4; over 10000 nM against ALK6; 89 nM against ALK2; over 10000 nM at ALK5; 370 nM against ALK1.
Regarding `C[S+](=O)([O-])c1cccc(-c2cnn3cc(-c4ccc(CCN5CCC6(CC5)CNC6)cc4)cnc23)c1` [Compound 178, 6-(4-(2-(2,7-diazaspiro[3.5]nonan-7-yl)ethyl)phenyl)-3-(3-(methylsulfonyl)phenyl)pyrazolo[1,5-a]pyrimidine], the IC50 against ALK3 is over 10000 nM; at ALK4 it was over 10000 nM; against ALK6 it was over 10000 nM; against ALK2, 92 nM; against ALK5, over 10000 nM; against ALK1, over 10000 nM.
With `CC(N)c1ccc(-c2cnc3c(-c4cccc([S+](C)(=O)[O-])c4)cnn3c2)cc1` (centres unmarked) [Compound 187, 1-(4-(3-(3-(methylsulfonyl)phenyl)pyrazolo[1,5-a]pyrimidin-6-yl)phenyl)ethanamine], the half-inhibitory concentration (IC50) was over 10000 nM at ALK3; over 10000 nM on ALK4; over 10000 nM against ALK6; 33 nM against ALK2; over 10000 nM at ALK5; 430 nM against ALK1.
With `CC(O)c1ccc(-c2cnn3cc(-c4ccc(N5[C@H](C)CNC[C@@H]5C)cc4)cnc23)c2ccccc12` (stereo partly drawn) [Compound 29, 1-(4-(6-(4-((2R,6S)-2,6-dimethylpiperazin-1-yl)phenyl)pyrazolo[1,5-a]pyrimidin-3-yl)naphthalen-1-yl)ethanol], the IC50 against ALK3 stood at 84 nM; against ALK4, 3540 nM; against ALK6, 294 nM; against ALK2, 14 nM; against ALK5, 5370 nM; against ALK1, 20 nM.
As to `CC(O)c1cccc(-c2cnn3cc(-c4ccc(OCCN5CCCCC5)cc4)cnc23)c1` (centres unmarked) [Compound 142, 1-(3-(6-(4-(2-(piperidin-1-yl)ethoxy)phenyl)pyrazolo[1,5-a]pyrimidin-3-yl)phenyl)ethanol], the IC50 against ALK3 was 1600 nM; at ALK4, over 10000 nM; at ALK6, over 10000 nM; on ALK2, 110 nM; against ALK5, over 10000 nM; against ALK1, 560 nM.
In the case of `NC(c1ccc(-c2cnn3cc(-c4ccc(OCCN5CCCCC5)cc4)cnc23)cc1)C(F)(F)F` (centres unmarked) [Compound 144, 2,2,2-trifluoro-1-(4-(6-(4-(2-(piperidin-1-yl)ethoxy)phenyl)pyrazolo[1,5-a]pyrimidin-3-yl)phenyl)ethanamine], the IC50 against ALK3, at ALK4, at ALK6, against ALK2, at ALK5 and on ALK1 was over 10000 nM throughout.
In the case of `C[S+](=O)([O-])c1cccc(-c2cnn3cc(-c4ccc(OC5(CN6C7CCC6CC7)CC5)cc4)cnc23)c1` [Compound 183, 6-(4-(1-(7-azabicyclo[2.2.1]heptan-7-ylmethyl)cyclopropoxy)phenyl)-3-(3-(methylsulfonyl)phenyl)pyrazolo[1,5-a]pyrimidine], the 50% inhibitory concentration (IC50) was 1900 nM against ALK3; over 10000 nM at ALK4; over 10000 nM against ALK6; 20 nM at ALK2; over 10000 nM at ALK5; 260 nM at ALK1.
Compound `Cc1cc(-c2cnn3cc(-c4ccc(N5[C@H](C)CNC[C@@H]5C)cc4)cnc23)ccc1S(N)(=O)=O` [Compound 37, 4-(6-(4-((2R,6S)-2,6-dimethylpiperazin-1-yl)phenyl)pyrazolo[1,5-a]pyrimidin-3-yl)-2-methylbenzenesulfonamide] yielded an IC50 against ALK1 of 811 nM.
In the case of `Cc1cc(S(N)(=O)=O)ccc1-c1cnn2cc(-c3ccc(N4[C@H](C)CNC[C@@H]4C)cc3)cnc12` [Compound 36, 4-(6-(4-((2R,6S)-2,6-dimethylpiperazin-1-yl)phenyl)pyrazolo[1,5-a]pyrimidin-3-yl)-3-methylbenzenesulfonamide], the IC50 at ALK2 came to 3040 nM; on ALK1, 9480 nM.
With `C[C@@H]1CNC[C@H](C)N1c1ccc(-c2cnc3c(-c4cccc5c(-c6nn[nH]n6)cccc45)cnn3c2)cc1` [Compound 28, 3-(5-(1H-tetrazol-5-yl)naphthalen-1-yl)-6-(4-((2R,6S)-2,6-dimethylpiperazin-1-yl)phenyl)pyrazolo[1,5-a]pyrimidine], the IC50 against ALK3 was 168 nM; against ALK6 it was 113 nM; at ALK2 it was 23 nM; against ALK1 it was 133 nM.
With `CC(N)c1ccc(-c2cnc3c(-c4ccc(S(N)(=O)=O)c5ccccc45)cnn3c2)cc1` (centres unmarked) [Compound 189, 4-(6-(4-(1-aminoethyl)phenyl)pyrazolo[1,5-a]pyrimidin-3-yl)naphthalene-1-sulfonamide], the IC50 was over 10000 nM against ALK4, over 10000 nM against ALK6, over 10000 nM against ALK5 and 350 nM against ALK1.
At ALK1, `C[C@@H]1CNC[C@H](C)N1c1ccc(-c2cnc3c(-c4ccc(S(N)(=O)=O)cc4)cnn3c2)cc1` [Compound 38, 4-(6-(4-((2R,6S)-2,6-dimethylpiperazin-1-yl)phenyl)pyrazolo[1,5-a]pyrimidin-3-yl)benzenesulfonamide] returned a concentration for half-maximal inhibition (IC50) of 1790 nM.
With `c1ccc2c(-c3cnn4cc(-c5ccc(N6CCNCC6)cc5)cnc34)ccnc2c1` [Compound A, reference compound], the “activity in the higher ATP concentrations (concentration-response curves)” value at ALK2 (ALK2, in the presence of 10, 100, or 1,000 µM ATP, FIG. 3) is “reduced”; on ALK1 (ALK1, in the presence of 10, 100, or 1,000 µM ATP, FIG. 3), “reduced”.

By IC50 is commonly meant the concentration at which inhibition is half-maximal. The low end stands for greater potency in that assay, the high end for weaker potency in that assay.

The values are drawn from patent US10513521B2, “Compositions and methods for inhibiting BMP” (The Brigham and Women's Hospital, Inc., priority 2014, dated 2019).
